Columns and labels:
[1] = test system: 293T human renal epithelial cells; experiment: High content imaging: entry of conjugates into 293T cells; assay type: cell-based; conditions: 100 nM, 30 min 37°C, normal cells
Procedure: (§1) In this experiment, the entry of conjugate AP1 provided by the present disclosure and comparative conjugate comparative AP10 into different cells was observed by a PerkinElmer High Content Imaging system (Operatta).
(§2) U118MG glioma cells, SVGp12 normal astrocytes, T98G human brain glioma cells, U251 human glioma cells, A549 human non-small cell lung cancer cells, MCF-7 human breast cancer cells, and 293T human kidney epithelial cells were all purchased from the Shanghai Cell Bank of Chinese Academy of Sciences. […] The supernatant was aspirated and DPBS buffer (purchased from Thermo Fisher) was added to wash the plate 2 times (100 μL each time).
(§3) Conjugate AP1 prepared above and yeast tRNA were respectively formulated into conjugate solution 2A with DMEM medium, and the conjugate solution 2A comprised yeast tRNA at a final concentration of 100 μg/mL and conjugate AP1 at a final concentration of 100 nM. […]
(§4) Normalization was performed according to the mean fluorescence intensity of control group 2Y, that is, subtracting the mean fluorescence intensity of control group 2Y from the fluorescence intensity of test group 2X before performing imaging.

[2] = test system: MCF-7 human breast cancer cells; experiment: High content imaging: entry of conjugates into MCF-7 cells; assay type: cell-based; conditions: 100 nM, 30 min 37°C
Procedure: as §1, §2, §3, §4

U251 human glioma cells = experiment: High content imaging: entry of conjugates into U251 cells; assay type: cell-based; conditions: 100 nM, 30 min 37°C
Procedure: as §1, §2, §3, §4

SVGp12 normal astrocytes = experiment: High content imaging: entry of conjugates into SVGp12 normal astrocytes; assay type: cell-based, human; conditions: 100 nM, 30 min 37°C
Procedure: as §1, §2, §3, §4

[3] = test system: A549 human non-small cell lung cancer cells; experiment: High content imaging: entry of conjugates into A549 cells; assay type: cell-based; conditions: 100 nM, 30 min 37°C
Procedure: as §1, §2, §3, §4

[4] = test system: A549 human non-small cell lung cancer tumor spheres; experiment: High content imaging: entry into A549 tumor spheres; assay type: cell-based; conditions: 100 nM, imaging without washing
Procedure: (§5) In this experiment, the entry of conjugate AP1 provided by the present disclosure and comparative conjugate comparative AP10 into U118MG glioma tumor spheres and A549 human non-small cell lung cancer tumor spheres was observed by a PerkinElmer High Content Imaging system (Operatta).
(§6) 80 μL fresh, sterilized and unsolidified 2% agarose was added into the culture wells of a 96-well plate. […] Half of the supernatant was aspirated every 48 h and fresh DMEM medium was added along the wall of the culture wells. After 7 days of culture, the cells were observed under the microscope to confirm that complete cell spheres were obtained, indicating successful tumor sphere cultivation.
(§7) Each culture well was added with AP1 or comparative AP10 according to the method of experimental Example 2, and imaged in a high content imaging system, with the only difference of directly performing imaging after culture without washing and performing imaging according to the measured fluorescence intensity of Cy5.

[5] = test system: U118MG glioma tumor spheres; experiment: High content imaging: entry into U118MG tumor spheres; assay type: cell-based, human; conditions: 100 nM, imaging without washing
Procedure: as §5, §6, §7

U118-MG glioma cells = experiment: Flow cytometry: entry of conjugates into U118-MG glioma cells in vitro; assay type: cell-based, human; conditions: 1 h 37°C, yeast tRNA 100 μg/mL, flow cytometry
Procedure: U118MG cells were seeded into a 96-well plate at 5×10^5 cells/well. Conjugate AP1 prepared above and yeast tRNA were respectively formulated into conjugates solution 1A, 1B, 1C, 1D, 1E, 1F, 1G, 1H, and 1I with DMEM medium, and these conjugate solutions 1A-1I comprised yeast tRNA at a final concentration of 100 μg/mL and respectively comprised conjugate AP1 at final concentrations of 5 nM, 10 nM, 20 nM, 40 nM, 60 nM, 80 nM, 100 nM, 150 nM, 200 nM, and […].
Control conjugate comparative AP10 prepared above and yeast tRNA were respectively formulated into conjugates solution 1A′, 1B′, 1C′, 1D′, 1E′, 1F′, 1G′ 1H′, and 1I′ with DMEM medium, and these conjugate solutions 1A′-1I′ comprised yeast tRNA at a final concentration of 100 μg/mL and respectively comprised control conjugate comparative AP10 at final concentrations of 5 nM, 10 nM, 20 nM, 40 nM, 60 nM, 80 nM, 100 nM, 150 nM, 200 nM, and […].
The aforementioned culture wells containing U118MG cells were respectively added with the conjugate solutions 1A-1I above in an amount of 200 μL/well and designated as test group 1A-test group 1I. The aforementioned culture wells containing U118MG cells were respectively added with the conjugate solution 1A′-1I′ above in an amount of 200 μL/well and designated as control group 1A′-control group 1I′. Another culture well containing U118MG cells was added with 200 μL DMEM medium containing yeast tRNA at a final concentration of 100 μg/mL and designated as blank control group 1J. The 96-well plate containing the above test groups and the blank control group were incubated at 37° C. for 1 h in the dark; after incubation, the supernatant of the reaction mixture of each test group and the blank control group was aspirated, and DPBS buffer (purchased from Thermo Fisher) was added to wash the plate 3 times (100 μL each time). After the washing solution was aspirated, each culture well was added with 100 μL DMEM medium to obtain a cell suspension. The supernatant was removed by centrifugation and then 500 μL DPBS buffer was added to re-suspend the cells. Flow cytometry analysis was performed with flow cytometer (BD Biosciences): 10,000 cells in each test group or the blank control group were analyzed, the fluorescence intensity distribution was determined and the mean fluorescence intensity (MFI, a.u.) was calculated. Furthermore, the mean fluorescence intensity corresponding to each final concentration of conjugates is listed in Table 4 below for comparison, and the relative fluorescence difference R is calculated according to the following equation: R=(MFIAP1−MFICAP10)/MFICAP10.
Therein, MFIAP1 represents mean fluorescence intensity of conjugate AP1 in U118-MG glioma cells, and MFICAP10 represents mean fluorescence intensity of comparative AP10 in U118-MG glioma cells.

[6] = test system: U118MG subcutaneous tumor; experiment: In vivo distribution of conjugates with different modifications in U118MG subcutaneous tumor model mice (Experimental Example 6); design: species or system NOD-SCID mice; conditions: 3 mg/kg tail vein; 4 h to 24 h after administration
Procedure: U118MG subcutaneous tumor model mice were prepared according to the method described in experimental Example 4.
9 mice were divided into 3 groups (3 mice per group). AP2, AP3 and comparative AP12 solutions were respectively administered to each mouse of each group by tail vein injection. […] The three groups of mice were respectively designated as test group 6A, test group 6B and test group 6C. […] On Day 10 after administration, one mouse of blank control group 6Y and one mouse of test group 6A was respectively euthanized and tumor tissues were taken for fluorescence imaging, and the results are shown in FIG. 5H. In FIGS. 5A-5H, Blank represents blank control group 6Y.

hSTAT3 mRNA = hSTAT3 mRNA inhibition by free uptake in PANC-1 cells, qPCR (Experimental Example 18); assay type: cell-based; conditions: PANC1 human pancreatic cancer cells, free uptake 2 μM, RNA extracted after 7 days
Procedure: PANC-1 human pancreatic cancer cells in the logarithmic growth phase were selected and digested (0.25% pancreatic enzyme). The cells were collected, centrifuged to remove the supernatant, and then resuspended in DMEM medium containing 10% FBS to be formulated into cell culture solution with a concentration of 1×10^5 cells/mL. The solutions were mixed thoroughly, seeded into a 24-well plate (with 1 mL/well, i.e. 1×10^5 cells/well).
After respectively culturing the cell solutions in different culture wells of a 24-well plate for 24 h, the supernatant was aspirated and 900 μL DMEM medium containing 10% FBS was added into each well. […]
For each reverse transcription reaction system, 5 μL of the above cDNA-containing solution was taken as the template. By using a SYBR Select Master Mix Kit (purchased from Thermo Fisher Scientific, Cat. No. 4472908), the target gene hSTAT3 and the internal control gene hGAPDH were amplified in a SteponePlus™ Real-Time fluorescence quantitative PCR Thermal Cycler (purchased from Thermo Fisher Scientific) according to the operation method the instruction. […]
For each test group and control group, the above quantitative PCR detection was performed twice.
The fluorescence quantitative data was analyzed by relative quantitative 2^−ΔΔct method, and the calculation method was as follows: […]

CY5-CfCfAGAGUfCfGCfUfGAGAUfUfCfGUfGGCfGCfUfAUfAUf (CCAGAGUCGCUGAGAUUCGUGGCGCUAUAU; listed as RNA, chemistry not fully specified) [comparative AP10, reference compound]
Cy5 fluorescence signal in cells [1]: nor the 293T human renal epithelial cells showed any fluorescence signal
Cy5 fluorescence signal in cells [2]: neither the tumor cells treated with comparative AP10 nor the 293T human renal epithelial cells showed any fluorescence signal
Cy5 fluorescence signal in cells (U251 human glioma cells): neither the tumor cells treated with comparative AP10 nor the 293T human renal epithelial cells showed any fluorescence signal
Cy5 fluorescence signal in cells (SVGp12 normal astrocytes): did not show any fluorescence signal
Cy5 fluorescence signal in cells [3]: neither the tumor cells treated with comparative AP10 nor the 293T human renal epithelial cells showed any fluorescence signal
Cy5 fluorescence signal in tumor spheres [4]: only the edge of the comparative AP10-treated tumor spheres showed significantly weak fluorescence signal
Cy5 fluorescence signal in tumor spheres [5]: only the edge of the comparative AP10-treated tumor spheres showed significantly weak fluorescence signal
mean fluorescence intensity (MFI) (U118-MG glioma cells; conjugate 5 nM): 25.4 a.u.
mean fluorescence intensity (MFI) (U118-MG glioma cells; conjugate 10 nM): 67.4 a.u.
mean fluorescence intensity (MFI) (U118-MG glioma cells; conjugate 20 nM): 176.4 a.u.
mean fluorescence intensity (MFI) (U118-MG glioma cells; conjugate 40 nM): 443.4 a.u.
mean fluorescence intensity (MFI) (U118-MG glioma cells; conjugate 60 nM): 666.4 a.u.
mean fluorescence intensity (MFI) (U118-MG glioma cells; conjugate 80 nM): 787.4 a.u.
mean fluorescence intensity (MFI) (U118-MG glioma cells; conjugate 100 nM): 1167.4 a.u.
mean fluorescence intensity (MFI) (U118-MG glioma cells; conjugate 150 nM): 1251.4 a.u.
mean fluorescence intensity (MFI) (U118-MG glioma cells; conjugate 200 nM): 1868.4 a.u.
mean fluorescence intensity (MFI) (U118-MG glioma cells; conjugate 500 nM): 4029.4 a.u.

CY5-CmsUmsGmGmAmGmUmUmCmAmGmAmCmGmUmGmUmUmGmCmUmCmUmUmCmCmGmAmUmCmsUmsCm [AP3]
fluorescence intensity in vivo / tumor [6]: still show high fluorescence intensity

CY5-UmCmUmAmUmGmGmCmUmGmCmCmGmAmUmCmUmGmGmUmCmUmCmCmAmUmGmUmAmCmGmUm [AP12]
fluorescence intensity in vivo / tumor [6]: still show high fluorescence intensity

B1: conjugate 37: siRNA sense strand 3′ terminal linked to AP2 delivery group by Spacer18-GfAfUf; Cy5 on antisense strand; SEQ ID NO: 71/48 (conjugate)
sense: CUAGAAAACUGGAUAACGUGAUCUGGAGUUCAGACGUGUUGCUCUUCCGAUCUC
antisense: ACGUUAUCCAGUUUUCUAGCC
modifications: AP2 delivery group, Spacer18 linker, Cy5; misc_feature 19 is linked to Spacer18 at 3' end
inhibition rate against hSTAT3 mRNA (hSTAT3 mRNA): 33%

B2: conjugate 38: siRNA sense strand 5′ terminal linked to 2′-O-cetyl modified aptamer by four propylene phosphate ester groups; Cy5 on antisense strand; SEQ ID NO: 72/48 (conjugate)
sense: CUGGAGUUCAGACGUGUUGCUCUUCCGAUCUCUUCUAGAAAACUGGAUAACGU
antisense: ACGUUAUCCAGUUUUCUAGCC
modifications: cetyl-modified aptamer, propylene phosphate linkers, Cy5, chemistry not fully specified
inhibition rate against hSTAT3 mRNA (hSTAT3 mRNA): 44%

Source: patent US20250325675A1, “APTAMER, CONJUGATE, COMPOSITION, METHOD FOR PREPARING SAME, AND USE THEREOF” (priority 2022, published 2025)
